What was measured:
[1] = test system: PANDI (fall panicum); experiment: Pre-emergence herbicidal activity, warm season; type: in vivo, Panicum dichotomiflorum; details: GR80 = lowest tested rate (300, 100, 30, 10 g/ha) with 80% or greater inhibition; approx. 14 days after treating; 30/21° C.
Procedure, shortened: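 Seeds sown in sterilised fertilised topsoil received surface-applied compound in 50:50 acetone/water, typically at 300, 100, 30 and 10 g/ha, then greenhouse-grown at 30/21° C (warm-season species) or 18/13° C (cool-season species). Percent inhibition versus untreated plants was scored at about 14 days, giving GR80; an asterisk marks activity short of 80% at the top rate.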

[2] = test system: POLCO (wild buckwheat); experiment: Pre-emergence herbicidal activity, cool season; type: in vivo, Polygonum convolvulus; details: lowest tested rate with 80% or greater inhibition; rates 300, 100, 30, 10 g/ha; about 14 days
Procedure, shortened: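 Activity is expressed as the rate giving 80% inhibition, with 300, 100, 30 and 10 g/ha typically tested. An asterisk marks activity short of 80% at the top rate. Warm-season grasses were held at 30/21 °C; cool-season blackgrass and wild buckwheat at 18/13 °C; scoring at about 14 days.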

[3] = test system: STEME (common chickweed); experiment: Pre-emergence herbicidal activity, cool season; type: in vivo, Stellaria media; details: lowest tested rate with 80% or greater inhibition; rates 300, 100, 30, 10 g/ha; about 14 days
Procedure, shortened: (§1)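 GR80 values derive from percent inhibition relative to untreated plants, read roughly 14 days after sowing and pre-emergence soil-surface treatment (compound in 50:50 acetone/water; rates typically 10, 30, 100, 300 g/ha). Warm-season weeds grew at 30/21° C day/night, cool-season ones at 18/13° C; an asterisk marks activity without reaching 80% at the highest rate.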

[4] = test system: AGSST (creeping bentgrass); experiment: Pre-emergence herbicidal activity, cool season; type: in vivo, Agrostis stolonifera; details: GR80 = lowest tested rate (300, 100, 30, 10 g/ha) with 80% or greater inhibition; approx. 14 days after treating; 18/13° C.
Procedure, shortened: as §1

[5] = test system: BRAPP (broadleaf signalgrass); experiment: Pre-plant incorporated (PPI) herbicidal activity, warm season; type: in vivo, Brachiaria platyphylla; details: for PPI activity GR80, BRAPP: pre-plant incorporated, lowest tested rate with 80% or greater inhibition, about 14 days
Experimental: (§2) In another set of tests, the pre-plant incorporated (PPI) activity of compounds of this invention was evaluated on the same species as for the pre-emergence tests described above. In the PPI tests the following procedure, designed to simulate PPI application, was used.
(§3) A pre-prepared topsoil mixture (described above) was placed in a pot and compacted to a depth of 1.0 to 1.25 cm from the top of the pot. Seeds of each of several monocotyledonous and dicotyledonous annual plant species were placed on top of the soil. A sufficient quantity of soil to cover the seeds and level fill the pot was weighed into an open container. A known amount of the test compound was dissolved or suspended in an organic solvent and applied by spraying to this cover soil. The cover soil was thoroughly mixed to distribute the test compound throughout the cover soil, and was then applied as a cover layer over the seeds. Untreated soil was used as a cover layer for control pots. After treatment the plants were placed in a greenhouse where they received 0.64 cm of overhead irrigation. All subsequent watering consisted of a light overhead mist and/or subirrigation as needed for germination and growth. Tables 9 and 10 below relate to warm season plant species which were placed after pre-emergence treatment in a greenhouse with a 30/21° C. day/night temperature regime. Tables 11 and 12 below relates to cool season plant species placed after pre-emergence treatment in a greenhouse or growth chamber with an 18/13° C. day/night temperature regime. Only the compounds of Examples 1, 6, 8, 11, 13 and 15-20 were included in PPI tests.
(§4) Approximately 14 days after planting and treating, the plants were observed and herbicidal efficacy recorded as percent inhibition by comparison with untreated plants.

[6] = test system: SINAR (wild mustard); experiment: Pre-plant incorporated (PPI) herbicidal activity, cool season; type: in vivo, Sinapis arvensis; details: for PPI activity GR80, SINAR: pre-plant incorporated, lowest tested rate with 80% or greater inhibition, about 14 days
Experimental: as §2, §3, §4

[7] = test system: ALOMY (blackgrass); experiment: as above; type: in vivo, Alopecurus myosuroides; details: for PPI activity GR80, ALOMY: pre-plant incorporated, lowest tested rate with 80% or greater inhibition, about 14 days
Experimental: as §2, §3, §4

[8] = test system: BROTE (downy brome); experiment: as above; type: in vivo, Bromus tectorum; details: for PPI activity GR80, BROTE: pre-plant incorporated, lowest tested rate with 80% or greater inhibition, about 14 days
Experimental: as §2, §3, §4

[9] = test system: AVEFA (wild oat); experiment: as above; type: in vivo, Avena fatua; details: for PPI activity GR80, AVEFA: pre-plant incorporated, lowest tested rate with 80% or greater inhibition, about 14 days
Experimental: as §2, §3, §4

[10] = test system: corn (ZEAMX); experiment: Selectivity test, PPI, warm season crop; type: in vivo, Zea mays; details: PPI application
Experimental: as §3, §4
Additional pre-emergence and PPI tests were conducted by the procedures described above, on warm and cool season weed species in the presence of crop species, to assess herbicidal selectivity. Crop species included in warm season tests were corn (Zea mays, ZEAMX), rice (Oryza sativa, ORYSA) and soybean (Glycine max, GLYMX). Crop species included in cool season tests were wheat (Triticum aestivum, TRZAW), barley (Hordeunm vulgare, HORVX) and oilseed rape (Brassica napus, BRSNS).
Tables 15 and 16 relate to pre-emergence and PPI tests respectively on warm season species. Table 17 relates to pre-emergence tests on cool season species.

[11] = weed, PPI application, 100 g/ha
[12] = weed, PPI application, 300 g/ha
[13] = weed, PPI application, 900 g/ha

CCN(CC)C(=O)n1cnc(S(=O)(=O)C(F)(F)Br)n1 [Example 1, 3-(bromodifluoromethylsulfonyl)-1-(N,N-diethylcarbamoyl)-1,2,4-triazole] was tested, and the “Pre-emergence activity (GR80) PANDI” value [1] was 30 g/ha, the “Pre-emergence activity GR80, POLCO” value [2] was “[empty]” and the “Pre-emergence activity GR80, STEME” value [3] was 100 g/ha. For the same compound, the “Pre-emergence activity (GR80) AGSST” value [4] was 30 g/ha, the inhibition at 10 g/ha ([5]; Urochloa platyphylla, PPI application, 10 g/ha, read-out: Percent inhibition BRAPP) was 0% and the inhibition at 30 g/ha ([5]; Urochloa platyphylla, PPI application, 30 g/ha, read-out: Percent inhibition BRAPP) was 0%. For the same compound, the inhibition at 100 g/ha ([5]; Urochloa platyphylla, PPI application, 100 g/ha, read-out: Percent inhibition BRAPP) was 100%, the inhibition at 300 g/ha ([5]; Urochloa platyphylla, PPI application, 300 g/ha, read-out: Percent inhibition BRAPP) was 90% and the inhibition at 900 g/ha ([5]; Urochloa platyphylla, PPI application, 900 g/ha, read-out: Percent inhibition BRAPP) was 100%. The “PPI activity GR80, BRAPP” value [5] was 100 g/ha, the inhibition at 30 g/ha ([6]; Brassica, weed, PPI application, 30 g/ha, read-out: Percent inhibition SINAR) was 100% and the inhibition at 100 g/ha ([6]; Brassica, weed, PPI application, 100 g/ha, read-out: Percent inhibition SINAR) was 100%. For the same compound, the inhibition at 300 g/ha ([6]; Brassica, weed, PPI application, 300 g/ha, read-out: Percent inhibition SINAR) was 100%, the inhibition at 900 g/ha ([6]; Brassica, weed, PPI application, 900 g/ha, read-out: Percent inhibition SINAR) was 100% and the “PPI activity GR80, SINAR” value [6] was 100 g/ha. It also gave an inhibition at 30 g/ha ([7]; Alopecurus myosuroides, weed, PPI application, 30 g/ha, read-out: Percent inhibition ALOMY) of 80%, an inhibition at 100 g/ha ([7]; Alopecurus myosuroides, weed, PPI application, 100 g/ha, read-out: Percent inhibition ALOMY) of 99% and an inhibition at 300 g/ha ([7]; Alopecurus myosuroides, weed, PPI application, 300 g/ha, read-out: Percent inhibition ALOMY) of 100%. The inhibition at 900 g/ha ([7]; Alopecurus myosuroides, weed, PPI application, 900 g/ha, read-out: Percent inhibition ALOMY) was 100%, the “PPI activity GR80, ALOMY” value [7] was 100 g/ha and the inhibition at 30 g/ha ([8]; Bromus tectorum, weed, PPI application, 30 g/ha, read-out: Percent inhibition BROTE) was 0%. For the same compound, the inhibition at 100 g/ha ([8]; Bromus tectorum, weed, PPI application, 100 g/ha, read-out: Percent inhibition BROTE) was 20%, the inhibition at 300 g/ha ([8]; Bromus tectorum, weed, PPI application, 300 g/ha, read-out: Percent inhibition BROTE) was 50% and the inhibition at 900 g/ha ([8]; Bromus tectorum, weed, PPI application, 900 g/ha, read-out: Percent inhibition BROTE) was 100%. For the same compound, the “PPI activity GR80, BROTE” value [8] was 300 g/ha, the inhibition at 30 g/ha ([9]; Avena fatua, weed, PPI application, 30 g/ha, read-out: Percent inhibition AVEFA) was 0% and the inhibition at 100 g/ha ([9]; Avena fatua, weed, PPI application, 100 g/ha, read-out: Percent inhibition AVEFA) was 20%. For the same compound, the inhibition at 300 g/ha ([9]; Avena fatua, weed, PPI application, 300 g/ha, read-out: Percent inhibition AVEFA) was 95%, the inhibition at 900 g/ha ([9]; Avena fatua, weed, PPI application, 900 g/ha, read-out: Percent inhibition AVEFA) was 90% and the “PPI activity GR80, AVEFA” value [9] was 300 g/ha. It also gave an inhibition at 10 g/ha ([10]; Zea mays, 10 g/ha, read-out: Percent inhibition ZEAMX) of 0%, an inhibition at 30 g/ha ([10]; Zea mays, 30 g/ha, read-out: Percent inhibition ZEAMX) of 0% and an inhibition at 100 g/ha ([10]; Zea mays, 100 g/ha, read-out: Percent inhibition ZEAMX) of 0%. For the same compound, the inhibition at 300 g/ha ([10]; Zea mays, 300 g/ha, read-out: Percent inhibition ZEAMX) was 25% and the inhibition at 900 g/ha ([10]; Zea mays, 900 g/ha, read-out: Percent inhibition ZEAMX) was 70%.

With CCN(CC)C(=O)n1cnc(S(=O)(=O)C(F)(F)SCC(=O)OC)n1 [Example 11] the “Pre-emergence activity (GR80) PANDI” value [1] was 300 g/ha, the “Pre-emergence activity GR80, POLCO” value [2] was “[empty]” and the “Pre-emergence activity GR80, STEME” value [3] was “[empty]”. For the same compound, the “Percent inhibition BRAPP” value ([5]; PPI application, 10 g/ha) was 0%, the “Percent inhibition BRAPP” value ([5]; PPI application, 30 g/ha) was 0% and the “Percent inhibition BRAPP” value ([5]; PPI application, 100 g/ha) was 60%. For the same compound, the “Percent inhibition BRAPP” value ([5]; PPI application, 300 g/ha) was 100%, the “Percent inhibition BRAPP” value ([5]; PPI application, 900 g/ha) was 100% and the “PPI activity GR80, BRAPP” value [5] was 300 g/ha. The “PPI activity GR80, SINAR” value [6] was 100 g/ha, the “Percent inhibition SINAR” value ([6]; weed, PPI application, 10 g/ha) was 0% and the “Percent inhibition SINAR” value ([6]; weed, PPI application, 30 g/ha) was 0%. The “Percent inhibition SINAR” value [6, 11] was 0%, the “Percent inhibition SINAR” value [6, 12] was 0% and the “Percent inhibition SINAR” value [6, 13] was 99%. The “PPI activity GR80, ALOMY” value [7] was 300 g/ha, the “Percent inhibition ALOMY” value ([7]; weed, PPI application, 10 g/ha) was 0% and the “Percent inhibition ALOMY” value ([7]; weed, PPI application, 30 g/ha) was 0%. The “Percent inhibition ALOMY” value [7, 11] was 20%, the “Percent inhibition ALOMY” value [7, 12] was 45% and the “Percent inhibition ALOMY” value [7, 13] was 100%. The “PPI activity GR80, BROTE” value [8] was “[empty]”, the “Percent inhibition BROTE” value ([8]; weed, PPI application, 10 g/ha) was 0% and the “Percent inhibition BROTE” value ([8]; weed, PPI application, 30 g/ha) was 0%. The “Percent inhibition BROTE” value [8, 11] was 0%, the “Percent inhibition BROTE” value [8, 12] was 0% and the “Percent inhibition BROTE” value [8, 13] was 20%. For the same compound, the “PPI activity GR80, AVEFA” value [9] was “[empty]”, the “Percent inhibition AVEFA” value ([9]; weed, PPI application, 10 g/ha) was 0% and the “Percent inhibition AVEFA” value ([9]; weed, PPI application, 30 g/ha) was 0%. For the same compound, the “Percent inhibition AVEFA” value [9, 11] was 0%, the “Percent inhibition AVEFA” value [9, 12] was 0% and the “Percent inhibition AVEFA” value [9, 13] was 60%. For the same compound, the “Percent inhibition ZEAMX” value ([10]; 10 g/ha) was 0%, the “Percent inhibition ZEAMX” value ([10]; 30 g/ha) was 0% and the “Percent inhibition ZEAMX” value ([10]; 100 g/ha) was 0%. The “Percent inhibition ZEAMX” value ([10]; 300 g/ha) was 0% and the “Percent inhibition ZEAMX” value ([10]; 900 g/ha) was 10%.

From patent publication US6461997B1, “Triazole sulfones having herbicidal activity” (Monsanto Technology LLC, priority 1999, dated 2002)
